Results as given in ChEMBL document CHEMBL4680149, “Biological evaluation and chemoproteomics reveal potential antibacterial targets of a cajaninstilbene-acid analogue” (Eur J Med Chem, 2020).
In brackets after ≈: the same amount, converted by molar mass. Activity calls are given as the source filed them. No cut-off for these calls is given here.

Key:
Staphylococcus aureus [1] = assay: Inhibition of PG biosynthesis in Staphylococcus aureus assessed as fold change in PlsC gene expression at 4 ug/ml incubated for 1 hr by qRT-PCR analysis relative to control; format: functional; details: dose 4.0 µg/ml
Staphylococcus aureus [2] = assay: Bactericidal activity against Staphylococcus aureus ATCC 25923 assessed as reduction in bacterial colony formation at 2X MIC incubated for 2 hrs by colony counting method; format: functional, organism-based
Cell membrane [3] = assay: Induction of cell membrane disruption in Staphylococcus aureus ATCC 25923 assessed as loose cell wall at 4 ug/ml incubated for 1 hr by transmission electron microscopic analysis; details: dose 4.0 µg/ml
Cell membrane [4] = assay: Induction of cell membrane disruption in Staphylococcus aureus ATCC 25923 at 4 ug/ml incubated for 1 hr by transmission electron microscopic analysis; format: subcellular; details: dose 4.0 µg/ml
Staphylococcus aureus [5] = assay: Antibacterial activity against methicillin resistant Staphylococcus aureus ATCC 43300 persisters assessed as eradication of colony formation at 24 to 40 ug/ml incubated for 6 hrs by colony counting method; format: functional, organism-based; details: dose 24-40 µg/ml
Staphylococcus aureus [6] = assay: Antibacterial activity against Staphylococcus aureus ATCC 25923 assessed as reduction in bacterial growth measured after 60 days of serial passage; format: functional; details: ATCC 25923, 1440 h, time 60 day
Staphylococcus aureus [7] = assay: Inhibition of PG biosynthesis in Staphylococcus aureus assessed as fold change in MprF gene expression at 4 ug/ml incubated for 1 hr by qRT-PCR analysis relative to control; format: functional; details: dose 4.0 µg/ml
RAW264.7 = assay: Cytotoxicity against mouse RAW264.7 cells assessed as reduction in cell viability incubated for 48 hrs by MTT assay; format: cell-based; details: RAW264.7, 48 h
Cell membrane [8] = assay: Induction of cell membrane permeabilization in Staphylococcus aureus ATCC 25923 assessed as increase in nucleic acid leakage by measuring increase in absorbance at 0.5 to 2X MIC measured every 30 mins for 5 hrs by spectrophotometry; format: subcellular
Cell membrane [9] = assay: Induction of cell membrane disruption in methicillin resistant Staphylococcus aureus ATCC 43300 at 4 ug/ml incubated for 1 hr by transmission electron microscopic analysis; format: subcellular; details: dose 4.0 µg/ml
Cell membrane [10] = assay: Induction of cell membrane depolarization in Staphylococcus aureus ATCC 25923 assessed as reduction in fluorescence intensity at 0.5 to 1 times MIC measured upto 90 mins by DiOC5 dye based flow cytometric analysis; format: subcellular; details: time min <=90
Staphylococcus aureus [11] = assay: Binding affinity to His-tagged recombinant Staphylococcus aureus PgsA expressed in Escherichia coli Rosetta DE3 at 5 uM incubated for 1 hr followed by UV irradiation for 20 mins by in-gel fluorescence scanning analysis; details: time 80.0 min
Cell membrane [12] = assay: Induction of cell membrane permeabilization in methicillin resistant Staphylococcus aureus ATCC 43300 assessed as increase in nucleic acid leakage by measuring increase in absorbance at 0.5 to 2X MIC measured every 30 mins for 5 hrs by spectrophotometry; format: subcellular
Staphylococcus aureus [13] = assay: Antibacterial activity against Staphylococcus aureus ATCC 25923 assessed as reduction in bacterial growth incubated for 16 hrs by broth microdilution method; format: functional
Staphylococcus aureus [14] = assay: Bacteriostatic activity against Staphylococcus aureus ATCC 25923 assessed as reduction in bacterial growth at 4 ug/ml incubated for 2 hrs by colony counting method; format: functional, organism-based; details: dose 4.0 µg/ml
Staphylococcus aureus [15] = assay: Bactericidal activity against in Staphylococcus aureus ATCC 25923 assessed as induction of bacterial death by measuring reduction in fluorescence intensity at 4 times MIC measured upto 90 mins by DiOC5 dye based flow cytometric analysis; format: functional, organism-based; details: time min <=90
Staphylococcus aureus [16] = assay: Inhibition of PG biosynthesis in Staphylococcus aureus assessed as fold change in Cls gene expression at 4 ug/ml incubated for 1 hr by qRT-PCR analysis relative to control; format: functional; details: dose 4.0 µg/ml
Lipid bilayer = assay: Induction of pore formation in DOPC/DOPG large unilamellar vesicles assessed as calcein leakage at 0.5 to 2 times MIC measured for 30 mins by fluorescence based assay
Cell membrane [17] = assay: Induction of cell membrane disruption in methicillin resistant Staphylococcus aureus ATCC 43300 assessed as loose cell wall at 4 ug/ml incubated for 1 hr by transmission electron microscopic analysis; details: dose 4.0 µg/ml
Staphylococcus aureus [18] = assay: Antibacterial activity against methicillin resistant Staphylococcus aureus ATCC 43300 persisters assessed as reduction in number of living bacteria at 24 to 40 ug/ml measured over 24 hrs by colony counting method; format: functional, organism-based; details: dose 24-40 µg/ml
Staphylococcus aureus [19] = assay: Inhibition of PG biosynthesis in Staphylococcus aureus assessed as fold change in PlsX gene expression at 4 ug/ml incubated for 1 hr by qRT-PCR analysis relative to control; format: functional; details: dose 4.0 µg/ml
Staphylococcus aureus [20] = assay: Inhibition of PG biosynthesis in Staphylococcus aureus assessed as fold change in DgkB gene expression at 4 ug/ml incubated for 1 hr by qRT-PCR analysis relative to control; format: functional; details: dose 4.0 µg/ml
Staphylococcus aureus [21] = assay: Inhibition of PG biosynthesis in Staphylococcus aureus assessed as fold change in YpfP gene expression at 4 ug/ml incubated for 1 hr by qRT-PCR analysis relative to control; format: functional; details: dose 4.0 µg/ml
Staphylococcus aureus [22] = assay: Inhibition of PG biosynthesis in Staphylococcus aureus assessed as fold change in LtaS gene expression at 4 ug/ml incubated for 1 hr by qRT-PCR analysis relative to control; format: functional; details: dose 4.0 µg/ml
Staphylococcus aureus [23] = assay: Inhibition of PG biosynthesis in Staphylococcus aureus assessed as fold change in CdsA gene expression at 4 ug/ml incubated for 1 hr by qRT-PCR analysis relative to control; format: functional; details: dose 4.0 µg/ml
Staphylococcus aureus [24] = assay: Resistance index, ratio of MIC for antibacterial activity against Staphylococcus aureus ATCC 25923 measured after 60 days of serial passage to MIC for antibacterial activity against Staphylococcus aureus ATCC25923 measured after 16 hrs; format: functional
Staphylococcus aureus [25] = assay: Inhibition of PG biosynthesis in Staphylococcus aureus assessed as fold change in PlsY gene expression at 4 ug/ml incubated for 1 hr by qRT-PCR analysis relative to control; format: functional; details: dose 4.0 µg/ml
Staphylococcus aureus [26] = assay: Bacteriostatic activity against Staphylococcus aureus ATCC 25923 assessed as reduction in bacterial growth at 4 ug/ml incubated for 16 hrs by Kirby-Bauer test method; format: functional, organism-based; details: dose 4.0 µg/ml

Which results are given for `COc1cc(/C=C/c2ccccc2F)c(C(=O)O)c(O)c1CC=C(C)C`?
fold change (FC) (Staphylococcus aureus [1]): 1.99; Activity (Staphylococcus aureus [2]): Active; Activity (Cell membrane [3]): Active; Activity (Cell membrane [4]): Active; Activity (Staphylococcus aureus [5]): Active; MIC (Staphylococcus aureus [6]): 12 µg/mL (≈ 33.7 µM); fold change (FC) (Staphylococcus aureus [7]): 0.759; IC50 (RAW264.7): 62.6 µM; Activity (Cell membrane [8]): Active; Activity (Cell membrane [9]): Active; Activity (Cell membrane [10]): Active; Activity (Staphylococcus aureus [11]): Active; Activity (Cell membrane [12]): Active; MIC (Staphylococcus aureus [13]): 4 µg/mL (≈ 11.2 µM); Activity (Staphylococcus aureus [14]): Active; Activity (Staphylococcus aureus [15]): Active; fold change (FC) (Staphylococcus aureus [16]): 0.558; Activity (Lipid bilayer): inactive; Activity (Cell membrane [17]): Active; Activity (Staphylococcus aureus [18]): Active; fold change (FC) (Staphylococcus aureus [19]): 0.577; fold change (FC) (Staphylococcus aureus [20]): 1.25; fold change (FC) (Staphylococcus aureus [21]): 0.446; fold change (FC) (Staphylococcus aureus [22]): 0.663; fold change (FC) (Staphylococcus aureus [23]): 1.18; Ratio (Staphylococcus aureus [24]): 3; fold change (FC) (Staphylococcus aureus [25]): 1.58; Activity (Staphylococcus aureus [26]): Active
